Results from patent publication US12018059B2, “Human amylin analog polypeptides and methods of use” (Intarcia Therapeutics, Inc., priority 2018, dated 2024).
Converted amounts (≈) assume the structure as drawn. Starred links: 1 amine or outer side, 2 acyl side, 3 side chain; linkers in the order of their positions; H or OH if unused. Positions of bridges follow the written chain, without caps; N, C: chain ends. Non-standard residues stand in square brackets, D forms with d. Residues, ends and D or L forms follow the SMILES beside them. Groups on a side chain read outwards from the residue. *: point of attachment. γGlu = O=C(O)[C@H](CCC(=O)[*:2])N[*:1]; Palmitoyl = CCCCCCCCCCCCCCCC(=O)*

How the values were obtained:
[1] = 27-day weight loss in combination with exenatide; settings: LE DIO rats
[2] = Acute food intake inhibition after SC bolus injection (BioDAQ); settings: Long Evans rats on 45% high fat diet
[3] = 13-day dose-response body weight loss, continuous SC infusion by osmotic mini-pump; settings: 13 days, LE DIO rats
in vivo = test: in vivo; parameters: species or system Sprague-Dawley rats; settings: male, Sprague-Dawley, rat, iv, 0.033 mg/kg
Method in brief: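 Male Sprague-Dawley rats, non-fasted (n=3), given peptide in saline as 1-h IV or SC infusion at 0.033 mg/kg, or SC bolus at 0.3 mg/kg; jugular blood to 48 h into K2EDTA plus protease inhibitors. Plasma extracted by precipitation or WCX solid-phase extraction, quantified by UPLC-MS/MS against standards in matching rat plasma.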

[4] = Solubility of amylin analog polypeptides (visual inspection, room temperature); format: physicochemical; settings: Solubility
Method: The analog polypeptides described herein were tested for solubility in saline 20% DMSO in water (i.e., bioassay buffer) or in aqueous (DI water) at room temperature. Samples were visually inspected for clarity of the sample, any appearance of turbidity or haziness.

[5] = 27-day HbA1c change in combination with exenatide; settings: dose 30 mcg/kg + Exenatide 10 mcg/kg, ZDF rats

Vd (in vivo): 0.174 L/kg
clearance (in vivo): 0.478 mL/min/kg
half-life (in vivo): 5.16 h
solubility [4]: 80.6 mg/mL (≈ 18 mM)
Structure (SMILES): CCCCCCCCCCCCCCCC(=O)N[C@@H](CCC(=O)N[C@@H](CCC(=O)NCCCC[C@@H](NC(=O)[C@H](CCC(=O)O)NC(=O)[C@H](CC(N)=O)NC(=O)[C@H](C)NC(=O)[C@H](CC(C)C)NC(=O)[C@H](CCCNC(=N)N)NC(=O)[C@H](CCC(N)=O)NC(=O)[C@@H](NC(=O)[C@H](C)NC(=O)[C@@H]1CSSC[C@H](NC(=O)[C@@H](N)CO)C(=O)N[C@@H](CC(N)=O)C(=O)N[C@@H]([C@@H](C)O)C(=O)N[C@@H](CO)C(=O)N[C@@H]([C@@H](C)O)C(=O)N1)[C@@H](C)O)C(=O)N[C@@H](Cc1c[nH]cn1)C(=O)N[C@@H](CCCCN)C(=O)N[C@@H](CO)C(=O)N[C@@H](CO)C(=O)N[C@@H](CC(N)=O)C(=O)N[C@@H](CC(N)=O)C(=O)N[C@@H](Cc1ccccc1)C(=O)NCC(=O)N1CCC[C@H]1C(=O)N[C@H](C(=O)N[C@@H](CC(C)C)C(=O)N1CCC[C@H]1C(=O)N1CCC[C@H]1C(=O)N[C@H](C(=O)N[C@@H](CCCCN)C(=O)N[C@H](C(=O)NCC(=O)N[C@@H](CO)C(=O)N[C@@H](CCC(=O)O)C(=O)N[C@H](C(=O)N[C@@H](Cc1ccc(O)cc1)C(N)=O)[C@@H](C)O)C(C)C)[C@@H](C)O)[C@@H](C)CC)C(=O)O)C(=O)O [Compound A27] (H-SCNTSTCATQRLANE[dK]([γGlu-γGlu-Palmitoyl])HKSSNNFGPILPPTKVGSETY-NH2; disulfide 2-7; N-terminus assumed)
DIO Combination + Exenatide 27 d weight loss, ΔΔ % weight loss ([1]; dose 3 mcg/kg + Exenatide 10 mcg/kg): 9%
DIO Combination + Exenatide 27 d weight loss, ΔΔ % weight loss ([1]; dose 10 mcg/kg + Exenatide 10 mcg/kg): 12%
DIO Combination + Exenatide 27 d weight loss, ΔΔ % weight loss ([1]; dose 30 mcg/kg + Exenatide 10 mcg/kg): 17%
Acute Food Intake % Inhibition vs vehicle ([2]; 0-24 hr after acute SC dosing): 86%
Acute Food Intake % Inhibition vs vehicle ([2]; 25-48 hr after acute SC dosing): 57%
Acute Food Intake % Inhibition vs vehicle ([2]; 49-72 hr after acute SC dosing): 13%
DIO Dose Response 13 d weight loss, ED50 [3]: 0.036 mg/kg
DIO Dose Response 13 d weight loss, ΔΔ % weight loss ([3]; from baseline and vehicle control): 5%
ZDF Combination + Exenatide 27 d HbA1c (%), ΔΔ % HbA1c [5]: 3.3%
